Reference: patent US5880128A, “Carbonyl piperazinyl and piperidinyl compounds” (Schering Corporation, priority 1996, dated 1999)

Target: farnesyl protein transferase (FPT)
Experiment: In vitro enzyme assay: inhibition of farnesyl protein transferase (FPT, FTase)
Assay type: biochemical, rat; human
Details: concentration of compound which inhibits 50% of FPT transferase
Description: 1. In vitro enzyme assays: Inhibition of farnesyl protein transferase and geranylgeranyl protein transferase.
Both farnesyl protein transferase (FPT) and geranylgeranyl protein transferase (GGPT) I are partially purified from rat brain by ammonium sulfate fractionation followed by Q-Sepharose (Pharmacia, Inc.) anion exchange chromatography essentially as described by Yokoyama et al (Yokoyama, K., et al., (1991), A protein geranylgeranyltransferase from bovine brain: Implications for protein prenylation specificity, Proc. Natl. Acad. Sci USA 88: 5302-5306, the disclosure of which is incorporated herein by reference thereto). Human farnesyl protein transferase is also expressed in E. coli, using cDNA clones encoding both the α and β subunits. The methods used are similar to those published (Omer, C. et al., (1993), Characterization of recombinant human farnesyl protein transferase: Cloning, expression, farnesyl diphosphate binding, and functional homology with yeast prenyl-protein transferases, Biochemistry 32:5167-5176). Human farnesyl protein transferase is partially-purified from the soluble protein fraction of E. coli as described above. The farnesyl protein transferase inhibitors disclosed herein may inhibit both human and rat enzyme with similar potencies. Two forms of val^12 -Ha-Ras protein are prepared as substrates for these enzymes, differing in their carboxy terminal sequence. One form terminates in cysteine-valine-leucine-serine (Ras-CVLS) the other in cystein-valine-leucine-leucine (Ras-CVLL). Ras-CVLS is a substrate for the farnesyl protein transferase while Ras-CVLL is a substrate for geranylgeranyl protein transferase I. The cDNAs encoding these proteins are constructed so that the proteins contain an amino-terminal extension of 6 histidine residues. Both proteins are expressed in Escherichia coli and purified using metal chelate affinity chromatography. The radiolabelled isoprenyl pyrophosphate substrates, [^3 H]farnesyl pyrophosphate and [^3 H]geranylgeranyl pyrophosphate, are purchased from a commercial source, such as DuPont/New England Nuclear.
Several methods for measuring farnesyl protein transferase activity are known (Reiss et al 1990, Cell 62: 81; Schaber et al 1990, J. Biol. Chem. 265: 14701; Manne et al 1990, PNAS 8: 7541; and Barbacid & Manne 1993, U.S. Pat. No. 5,185,248). […] Filter mats are washed once with 6% TCA, 2% SDS and radioactivity is measured in a Wallac 1204 Betaplate BS liquid scintillation counter. Percent inhibition is calculated relative to the DMSO vehicle control. […]

| Structure (SMILES) | IC50 |
| --- | --- |
| O=C(c1ccc(Cl)cc1)C1CCN(C(=O)Cc2ccncc2)CC1 | 60 µM |
| O=C(c1ccccc1)C1CCN(C(=O)Cc2ccncc2)CC1 | > 60 µM |
| Cc1c(C)c(C)c(C(=O)C2CCN(C(=O)Cc3ccncc3)CC2)c(C)c1C | 12.1 µM |
| O=C(c1ccc(F)cc1)C1CCN(C(=O)Cc2ccncc2)CC1 | > 60 µM |
